Results published in the kinase profiling compilation of Christmann-Franck et al. (2016).
“And” between values parts separate entries of the source, which are not always exact repeats. Equal values may be shown once.

Columns and labels:
Experiment in all cases: radiometric filter-binding kinase assay, Kinase HotSpot
Conditions in all cases: compound 0.5 µM; ATP 10 µM
CAMK1 (human) = CAMK1 (human) (UniProt Q14012)
CAMK2A (human) = CAMK2A (human) (UniProt Q9UQM7)
CAMK2B (human) = CAMK2B (human) (UniProt Q13554)
CAMK2D (human) = CAMK2D (human) (UniProt Q13557)
CAMK2G (human) = CAMK2G (human) (UniProt Q13555)
Chain of CAMK2G (human) (Q13555 whole entry, looked up): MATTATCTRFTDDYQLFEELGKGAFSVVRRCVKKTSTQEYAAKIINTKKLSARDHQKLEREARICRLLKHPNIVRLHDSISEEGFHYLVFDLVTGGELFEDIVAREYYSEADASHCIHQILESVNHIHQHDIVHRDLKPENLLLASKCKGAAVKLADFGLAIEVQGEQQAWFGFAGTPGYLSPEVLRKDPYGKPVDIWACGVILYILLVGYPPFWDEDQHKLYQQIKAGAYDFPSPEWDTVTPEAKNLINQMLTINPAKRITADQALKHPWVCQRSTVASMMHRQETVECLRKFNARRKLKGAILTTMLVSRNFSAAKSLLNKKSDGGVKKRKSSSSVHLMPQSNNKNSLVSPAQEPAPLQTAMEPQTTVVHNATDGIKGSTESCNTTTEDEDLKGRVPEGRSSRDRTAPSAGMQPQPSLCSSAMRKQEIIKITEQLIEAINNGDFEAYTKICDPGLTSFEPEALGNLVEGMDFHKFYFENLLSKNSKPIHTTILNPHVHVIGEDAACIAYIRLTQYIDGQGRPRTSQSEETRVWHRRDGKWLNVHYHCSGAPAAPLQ

CAMK4 (human) = CAMK4 (human) (UniProt Q16566)
CDK4 CCND3 (human) = CDK4 CCND3 (human) (UniProt P30281+P11802)
CDK5 CDK5R1 p35 (human) = CDK5 CDK5R1 p35 (human) (UniProt Q00535+Q15078)
CDK6 CCND3 (human) = CDK6 CCND3 (human) (UniProt P30281+Q00534)
CLK1 (human) = CLK1 (human) (UniProt P49759)
DCLK2 (human) = DCLK2 (human) (UniProt Q8N568)
Chain of DCLK2 (human) (Q8N568 whole entry, looked up): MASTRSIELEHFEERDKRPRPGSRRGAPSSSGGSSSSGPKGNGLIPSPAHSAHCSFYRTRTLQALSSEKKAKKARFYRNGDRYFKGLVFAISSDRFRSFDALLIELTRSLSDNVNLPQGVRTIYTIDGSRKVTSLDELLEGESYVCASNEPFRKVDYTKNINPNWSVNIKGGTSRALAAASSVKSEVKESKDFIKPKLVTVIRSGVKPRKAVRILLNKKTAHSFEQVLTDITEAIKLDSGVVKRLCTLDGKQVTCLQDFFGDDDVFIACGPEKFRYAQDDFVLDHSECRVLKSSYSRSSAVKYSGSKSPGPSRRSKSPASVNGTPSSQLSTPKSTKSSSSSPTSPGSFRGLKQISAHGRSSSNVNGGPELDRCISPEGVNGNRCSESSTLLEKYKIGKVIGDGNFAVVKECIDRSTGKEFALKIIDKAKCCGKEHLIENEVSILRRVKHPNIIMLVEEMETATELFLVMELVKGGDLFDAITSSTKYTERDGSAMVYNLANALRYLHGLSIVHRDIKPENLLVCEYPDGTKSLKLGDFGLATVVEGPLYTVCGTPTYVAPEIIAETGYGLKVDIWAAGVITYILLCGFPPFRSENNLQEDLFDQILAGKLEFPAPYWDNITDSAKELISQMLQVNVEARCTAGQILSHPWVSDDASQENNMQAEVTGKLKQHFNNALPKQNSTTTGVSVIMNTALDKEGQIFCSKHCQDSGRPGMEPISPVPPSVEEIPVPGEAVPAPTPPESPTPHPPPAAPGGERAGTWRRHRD

EPHB3 (human) = EPHB3 (human) (UniProt P54753)
FGR (human) = FGR (human) (UniProt P09769)
Chain of FGR (human) (P09769 whole entry, looked up): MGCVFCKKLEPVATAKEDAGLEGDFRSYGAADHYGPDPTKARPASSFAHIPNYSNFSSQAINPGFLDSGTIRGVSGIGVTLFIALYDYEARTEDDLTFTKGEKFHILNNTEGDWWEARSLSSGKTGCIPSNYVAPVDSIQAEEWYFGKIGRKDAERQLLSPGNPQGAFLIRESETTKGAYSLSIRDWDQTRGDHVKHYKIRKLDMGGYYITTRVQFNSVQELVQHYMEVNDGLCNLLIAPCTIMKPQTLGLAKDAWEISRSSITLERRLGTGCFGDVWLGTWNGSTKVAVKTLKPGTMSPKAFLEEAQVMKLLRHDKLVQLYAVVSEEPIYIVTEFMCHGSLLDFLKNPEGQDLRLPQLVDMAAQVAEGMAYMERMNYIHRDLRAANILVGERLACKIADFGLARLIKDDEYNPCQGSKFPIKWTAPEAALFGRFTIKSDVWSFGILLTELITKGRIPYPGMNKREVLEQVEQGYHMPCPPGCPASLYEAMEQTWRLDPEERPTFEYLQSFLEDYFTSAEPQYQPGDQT

GRK5 (human) = GRK5 (human) (UniProt P34947)
IRAK1 (human) = IRAK1 (human) (UniProt P51617)
JAK3 JH1 JH2 (human) = JAK3 JH1 JH2 (human) (UniProt P52333)
LCK (human) = LCK (human) (UniProt P06239)
Chain of LCK (human) (P06239 whole entry, looked up): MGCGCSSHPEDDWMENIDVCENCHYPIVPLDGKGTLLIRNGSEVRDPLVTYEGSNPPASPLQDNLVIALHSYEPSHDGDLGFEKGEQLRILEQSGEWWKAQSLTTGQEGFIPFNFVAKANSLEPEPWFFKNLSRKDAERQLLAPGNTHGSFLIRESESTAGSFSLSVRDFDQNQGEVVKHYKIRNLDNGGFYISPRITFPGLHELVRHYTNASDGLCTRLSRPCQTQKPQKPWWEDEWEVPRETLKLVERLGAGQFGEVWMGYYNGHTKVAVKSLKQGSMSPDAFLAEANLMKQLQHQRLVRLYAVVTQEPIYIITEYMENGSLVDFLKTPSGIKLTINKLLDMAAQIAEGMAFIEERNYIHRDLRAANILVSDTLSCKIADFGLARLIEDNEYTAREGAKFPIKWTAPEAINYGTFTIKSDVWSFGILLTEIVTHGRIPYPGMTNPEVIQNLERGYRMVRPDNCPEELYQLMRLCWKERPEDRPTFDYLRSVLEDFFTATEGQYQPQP

MAP2K1 (human) = MAP2K1 (human) (UniProt Q02750)
MAP3K11 (human) = MAP3K11 (human) (UniProt Q16584)
MAP3K5 (human) = MAP3K5 (human) (UniProt Q99683)
MAP3K7 TAB1 (human) = MAP3K7 TAB1 (human) (UniProt O43318+Q15750)
MAP4K4 (human) = MAP4K4 (human) (UniProt O95819)
MAPK3 (human) = MAPK3 (human) (UniProt P27361)
MAPK8 (human) = MAPK8 (human) (UniProt P45983)
MAPKAPK3 (human) = MAPKAPK3 (human) (UniProt Q16644)
Chain of MAPKAPK3 (human) (Q16644 whole entry, looked up): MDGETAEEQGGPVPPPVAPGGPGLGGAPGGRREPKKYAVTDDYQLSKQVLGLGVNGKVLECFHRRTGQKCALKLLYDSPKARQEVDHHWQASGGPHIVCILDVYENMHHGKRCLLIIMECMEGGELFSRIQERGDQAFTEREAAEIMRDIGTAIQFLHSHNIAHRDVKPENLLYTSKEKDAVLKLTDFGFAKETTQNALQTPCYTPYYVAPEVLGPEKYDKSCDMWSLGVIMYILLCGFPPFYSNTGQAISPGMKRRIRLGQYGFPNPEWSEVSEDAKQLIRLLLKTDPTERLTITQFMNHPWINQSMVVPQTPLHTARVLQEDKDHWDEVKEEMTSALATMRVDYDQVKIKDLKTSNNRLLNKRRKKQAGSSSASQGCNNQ

MINK1 (human) = MINK1 (human) (UniProt Q8N4C8)
MYLK (human) = MYLK (human) (UniProt Q15746)
NEK6 (human) = NEK6 (human) (UniProt Q9HC98)
Chain of NEK6 (human) (Q9HC98 whole entry, looked up): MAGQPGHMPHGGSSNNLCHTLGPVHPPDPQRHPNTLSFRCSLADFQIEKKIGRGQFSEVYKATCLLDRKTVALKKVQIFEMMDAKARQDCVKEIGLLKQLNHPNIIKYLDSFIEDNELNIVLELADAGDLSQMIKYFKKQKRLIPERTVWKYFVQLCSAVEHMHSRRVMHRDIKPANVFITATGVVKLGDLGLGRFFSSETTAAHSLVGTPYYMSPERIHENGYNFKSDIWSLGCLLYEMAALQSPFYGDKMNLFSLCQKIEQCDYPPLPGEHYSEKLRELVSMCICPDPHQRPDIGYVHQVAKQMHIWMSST

NEK9 (human) = NEK9 (human) (UniProt Q8TD19)
Chain of NEK9 (human) (Q8TD19 whole entry, looked up): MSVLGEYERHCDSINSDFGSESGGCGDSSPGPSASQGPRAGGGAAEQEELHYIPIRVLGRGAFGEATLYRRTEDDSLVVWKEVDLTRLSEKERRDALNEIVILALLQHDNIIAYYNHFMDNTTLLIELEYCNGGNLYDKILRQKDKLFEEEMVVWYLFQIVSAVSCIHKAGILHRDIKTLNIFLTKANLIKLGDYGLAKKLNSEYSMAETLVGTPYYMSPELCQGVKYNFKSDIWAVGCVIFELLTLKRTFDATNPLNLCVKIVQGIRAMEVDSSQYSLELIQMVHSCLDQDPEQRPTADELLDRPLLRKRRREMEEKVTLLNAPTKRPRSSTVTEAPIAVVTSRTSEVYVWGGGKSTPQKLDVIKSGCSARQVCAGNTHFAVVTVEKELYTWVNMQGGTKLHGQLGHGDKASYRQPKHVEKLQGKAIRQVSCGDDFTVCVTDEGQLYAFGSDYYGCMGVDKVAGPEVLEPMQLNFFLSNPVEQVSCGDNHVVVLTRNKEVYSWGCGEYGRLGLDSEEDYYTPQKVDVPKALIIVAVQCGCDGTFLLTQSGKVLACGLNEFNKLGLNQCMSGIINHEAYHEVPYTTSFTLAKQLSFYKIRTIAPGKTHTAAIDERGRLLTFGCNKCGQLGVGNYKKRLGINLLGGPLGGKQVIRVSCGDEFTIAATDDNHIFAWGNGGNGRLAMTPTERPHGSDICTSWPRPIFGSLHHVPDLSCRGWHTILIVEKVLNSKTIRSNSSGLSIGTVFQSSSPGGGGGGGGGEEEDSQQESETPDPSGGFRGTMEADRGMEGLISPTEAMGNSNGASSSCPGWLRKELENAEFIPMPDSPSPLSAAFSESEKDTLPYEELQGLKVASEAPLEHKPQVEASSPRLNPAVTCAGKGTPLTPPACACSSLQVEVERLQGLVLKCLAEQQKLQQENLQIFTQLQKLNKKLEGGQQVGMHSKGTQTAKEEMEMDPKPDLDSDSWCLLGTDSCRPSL

PASK (human) = PASK (human) (UniProt Q96RG2)
PNCK (human) = PNCK (human) (UniProt Q6P2M8)
PRKG1 (human) = PRKG1 (human) (UniProt Q13976)
ROCK2 (human) = ROCK2 (human) (UniProt O75116)
SRC (human) = SRC (human) (UniProt P12931)
STK10 (human) = STK10 (human) (UniProt O94804)
STK16 (human) = STK16 (human) (UniProt O75716)
STK17A (human) = STK17A (human) (UniProt Q9UEE5)
Chain of STK17A (human) (Q9UEE5 whole entry, looked up): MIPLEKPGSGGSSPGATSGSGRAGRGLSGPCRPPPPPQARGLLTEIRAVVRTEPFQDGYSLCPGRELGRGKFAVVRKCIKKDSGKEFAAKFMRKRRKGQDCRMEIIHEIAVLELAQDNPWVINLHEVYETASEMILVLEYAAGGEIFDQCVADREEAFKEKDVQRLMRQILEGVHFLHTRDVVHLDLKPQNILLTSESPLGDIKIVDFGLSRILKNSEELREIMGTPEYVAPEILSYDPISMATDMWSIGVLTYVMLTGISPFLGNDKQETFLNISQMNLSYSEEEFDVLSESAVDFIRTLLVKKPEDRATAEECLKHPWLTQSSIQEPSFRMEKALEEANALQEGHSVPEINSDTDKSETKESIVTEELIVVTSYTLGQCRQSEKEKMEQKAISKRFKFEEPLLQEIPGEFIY

STK25 (human) = STK25 (human) (UniProt O00506)
Chain of STK25 (human) (O00506 whole entry, looked up): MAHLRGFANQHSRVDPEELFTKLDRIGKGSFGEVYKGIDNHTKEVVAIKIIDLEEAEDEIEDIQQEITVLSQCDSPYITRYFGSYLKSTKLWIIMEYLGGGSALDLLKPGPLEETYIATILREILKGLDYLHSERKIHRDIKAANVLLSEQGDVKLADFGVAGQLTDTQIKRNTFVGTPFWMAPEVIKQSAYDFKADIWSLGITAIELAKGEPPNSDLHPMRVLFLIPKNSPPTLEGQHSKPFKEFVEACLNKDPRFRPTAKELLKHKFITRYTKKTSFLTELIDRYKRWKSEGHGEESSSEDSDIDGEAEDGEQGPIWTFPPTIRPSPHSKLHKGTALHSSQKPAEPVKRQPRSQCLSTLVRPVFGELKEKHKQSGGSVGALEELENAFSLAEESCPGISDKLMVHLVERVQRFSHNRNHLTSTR

STK3 (human) = STK3 (human) (UniProt Q13188)
STK33 (human) = STK33 (human) (UniProt Q9BYT3)
TGFBR2 (human) = TGFBR2 (human) (UniProt P37173)

O=c1cc(N2CCOCC2)oc2c1ccc1ccccc12
residual activity (CAMK1 (human)): 111% | residual activity (CAMK2A (human)): 99.4% | residual activity (CAMK2B (human)): 98.1% | residual activity (CAMK2D (human)): 99.9% | residual activity (CAMK2G (human)): 95.5% | residual activity (CAMK4 (human)): 94% | residual activity (CDK4 CCND3 (human)): 96.8% | residual activity (CDK5 CDK5R1 p35 (human)): 96.7% | residual activity (CDK6 CCND3 (human)): 95.1% | residual activity (CLK1 (human)): 98.3% | residual activity (DCLK2 (human)): 100% | residual activity (EPHB3 (human)): 90% | residual activity (FGR (human)): 94.6% | residual activity (GRK5 (human)): 106% | residual activity (IRAK1 (human)): 112% | residual activity (JAK3 JH1 JH2 (human)): 103% | residual activity (LCK (human)): 99.2% | residual activity (MAP2K1 (human)): 99.3% | residual activity (MAP3K11 (human)): 99.2% | residual activity (MAP3K5 (human)): 98.2% | residual activity (MAP3K7 TAB1 (human)): 98.3% | residual activity (MAP4K4 (human)): 89.3% | residual activity (MAPK3 (human)): 106% | residual activity (MAPK8 (human)): 97.2% | residual activity (MAPKAPK3 (human)): 105% | residual activity (MINK1 (human)): 96% | residual activity (MYLK (human)): 92.3% | residual activity (NEK6 (human)): 92.5% | residual activity (NEK9 (human)): 102% | residual activity (PASK (human)): 94.9% | residual activity (PNCK (human)): 97.4% | residual activity (PRKG1 (human)): 84.5% and 94.6% | residual activity (ROCK2 (human)): 95.9% | residual activity (SRC (human)): 99.3% | residual activity (STK10 (human)): 96.9% | residual activity (STK16 (human)): 99% | residual activity (STK17A (human)): 94.6% | residual activity (STK25 (human)): 94.8% | residual activity (STK3 (human)): 99.1% | residual activity (STK33 (human)): 97.5% | residual activity (TGFBR2 (human)): 122%

CCN(CC)C(=O)c1ccc(Nc2nc(OCC3CCCCC3)c3nc[nH]c3n2)cc1
residual activity (CAMK1 (human)): 85.6% | residual activity (CAMK2A (human)): 105% | residual activity (CAMK2B (human)): 97.6% | residual activity (CAMK2D (human)): 94.5% | residual activity (CAMK2G (human)): 95.2% | residual activity (CAMK4 (human)): 97.7% | residual activity (CDK4 CCND3 (human)): 59.2% | residual activity (CDK5 CDK5R1 p35 (human)): 77.1% | residual activity (CDK6 CCND3 (human)): 47.2% | residual activity (CLK1 (human)): 74.1% | residual activity (DCLK2 (human)): 97.3% | residual activity (EPHB3 (human)): 99.5% | residual activity (FGR (human)): 54.2% | residual activity (GRK5 (human)): 98.8% | residual activity (IRAK1 (human)): 93.8% | residual activity (JAK3 JH1 JH2 (human)): 6.39% | residual activity (LCK (human)): 39.8% | residual activity (MAP2K1 (human)): 94.1% | residual activity (MAP3K11 (human)): 5.55% | residual activity (MAP3K5 (human)): 96.9% | residual activity (MAP3K7 TAB1 (human)): 57.1% | residual activity (MAP4K4 (human)): 85.9% | residual activity (MAPK3 (human)): 101% | residual activity (MAPK8 (human)): 51.1% | residual activity (MAPKAPK3 (human)): 103% | residual activity (MINK1 (human)): 88.5% | residual activity (MYLK (human)): 91.6% | residual activity (NEK6 (human)): 101% | residual activity (NEK9 (human)): 81.9% | residual activity (PASK (human)): 103% | residual activity (PNCK (human)): 117% | residual activity (PRKG1 (human)): 89.8% and 96.1% | residual activity (ROCK2 (human)): 39.8% | residual activity (SRC (human)): 72.8% | residual activity (STK10 (human)): 57.3% | residual activity (STK16 (human)): 33.6% | residual activity (STK17A (human)): 59.8% | residual activity (STK25 (human)): 85.2% | residual activity (STK3 (human)): 62.1% | residual activity (STK33 (human)): 67.2% | residual activity (TGFBR2 (human)): 75.4%

O=C(Nc1cccc(Nc2nccc(Nc3cccc(C(F)(F)F)c3)n2)c1)C1CC1
residual activity (CAMK1 (human)): 95.5% | residual activity (CAMK2A (human)): 98% | residual activity (CAMK2B (human)): 102% | residual activity (CAMK2D (human)): 93.5% | residual activity (CAMK2G (human)): 108% | residual activity (CAMK4 (human)): 97.9% | residual activity (CDK4 CCND3 (human)): 103% | residual activity (CDK5 CDK5R1 p35 (human)): 105% | residual activity (CDK6 CCND3 (human)): 98.5% | residual activity (CLK1 (human)): 102% | residual activity (DCLK2 (human)): 97.4% | residual activity (EPHB3 (human)): 100% | residual activity (FGR (human)): 80.9% | residual activity (GRK5 (human)): 104% | residual activity (IRAK1 (human)): 96.4% | residual activity (JAK3 JH1 JH2 (human)): 109% | residual activity (MAP2K1 (human)): 98% | residual activity (MAP3K11 (human)): 89.5% | residual activity (MAP3K5 (human)): 111% | residual activity (MAP3K7 TAB1 (human)): 87.4% | residual activity (MAP4K4 (human)): 92.4% | residual activity (MAPK3 (human)): 98.2% | residual activity (MAPK8 (human)): 85.7% | residual activity (MAPKAPK3 (human)): 93% | residual activity (MINK1 (human)): 108% | residual activity (MYLK (human)): 90% | residual activity (NEK6 (human)): 103% | residual activity (NEK9 (human)): 102% | residual activity (PASK (human)): 106% | residual activity (PNCK (human)): 106% | residual activity (PRKG1 (human)): 97.6% and 99.3% | residual activity (ROCK2 (human)): 105% | residual activity (SRC (human)): 64.5% | residual activity (STK10 (human)): 90.1% | residual activity (STK16 (human)): 87% | residual activity (STK17A (human)): 97.6% | residual activity (STK25 (human)): 98.1% | residual activity (STK3 (human)): 96% | residual activity (STK33 (human)): 81.5% | residual activity (TGFBR2 (human)): 91.6%

O=S(=O)(c1cccc2cnccc12)N1CCCNCC1
residual activity (CAMK1 (human)): 99.4% | residual activity (CAMK2A (human)): 99.9% | residual activity (CAMK2B (human)): 93.2% | residual activity (CAMK2D (human)): 98.5% | residual activity (CAMK2G (human)): 93.1% | residual activity (CAMK4 (human)): 92.9% | residual activity (CDK4 CCND3 (human)): 98.5% | residual activity (CDK6 CCND3 (human)): 95.8% | residual activity (CLK1 (human)): 96.3% | residual activity (DCLK2 (human)): 83.9% | residual activity (EPHB3 (human)): 95.4% | residual activity (FGR (human)): 90.5% | residual activity (GRK5 (human)): 109% | residual activity (IRAK1 (human)): 86.2% | residual activity (JAK3 JH1 JH2 (human)): 120% | residual activity (LCK (human)): 101% | residual activity (MAP2K1 (human)): 83% | residual activity (MAP3K11 (human)): 99.7% | residual activity (MAP3K5 (human)): 88.7% | residual activity (MAP3K7 TAB1 (human)): 106% | residual activity (MAP4K4 (human)): 44.1% | residual activity (MAPK3 (human)): 96.1% | residual activity (MAPK8 (human)): 89.7% | residual activity (MAPKAPK3 (human)): 99.7% | residual activity (MINK1 (human)): 96.6% | residual activity (MYLK (human)): 97.4% | residual activity (NEK6 (human)): 97.6% | residual activity (NEK9 (human)): 95.9% | residual activity (PASK (human)): 97.1% | residual activity (PNCK (human)): 91.6% | residual activity (PRKG1 (human)): 79.6% and 87.7% | residual activity (SRC (human)): 85.3% | residual activity (STK10 (human)): 103% | residual activity (STK16 (human)): 91.7% | residual activity (STK17A (human)): 98.2% | residual activity (STK25 (human)): 84.8% | residual activity (STK3 (human)): 90% | residual activity (STK33 (human)): 90.3% | residual activity (TGFBR2 (human)): 97%

COc1ccc(COc2ccc(Cc3cnc(N)nc3N)cc2OC)cc1
residual activity (CAMK1 (human)): 103% | residual activity (CAMK2A (human)): 105% | residual activity (CAMK2B (human)): 100% | residual activity (CAMK2D (human)): 109% | residual activity (CAMK2G (human)): 94.4% | residual activity (CAMK4 (human)): 94.7% | residual activity (CDK4 CCND3 (human)): 107% | residual activity (CDK6 CCND3 (human)): 94.5% | residual activity (CLK1 (human)): 103% | residual activity (DCLK2 (human)): 101% | residual activity (EPHB3 (human)): 91.8% | residual activity (FGR (human)): 92.3% | residual activity (GRK5 (human)): 109% | residual activity (IRAK1 (human)): 123% | residual activity (JAK3 JH1 JH2 (human)): 95.9% | residual activity (LCK (human)): 96.3% | residual activity (MAP2K1 (human)): 98.6% | residual activity (MAP3K11 (human)): 101% | residual activity (MAP3K5 (human)): 89% | residual activity (MAP3K7 TAB1 (human)): 97.9% | residual activity (MAP4K4 (human)): 99% | residual activity (MAPK3 (human)): 99.1% | residual activity (MAPK8 (human)): 91.9% | residual activity (MAPKAPK3 (human)): 96% | residual activity (MINK1 (human)): 86.5% | residual activity (MYLK (human)): 95.7% | residual activity (NEK6 (human)): 99.4% | residual activity (NEK9 (human)): 93.3% | residual activity (PASK (human)): 103% | residual activity (PNCK (human)): 98.4% | residual activity (PRKG1 (human)): 91.7% and 98.3% | residual activity (ROCK2 (human)): 84.1% | residual activity (SRC (human)): 97.9% | residual activity (STK10 (human)): 100% | residual activity (STK16 (human)): 106% | residual activity (STK17A (human)): 102% | residual activity (STK25 (human)): 97% | residual activity (STK3 (human)): 98.4% | residual activity (STK33 (human)): 96.4% | residual activity (TGFBR2 (human)): 127%
